The record followed here is ChEMBL document CHEMBL1641603, “Inhibition of β-carbonic anhydrases with ureido-substituted benzenesulfonamides” (Bioorg Med Chem Lett, 2011).

Each structure is given as a SMILES string.

This test addresses T1, PROBABLE TRANSMEMBRANE CARBONIC ANHYDRASE (CARBONATE DEHYDRATASE) (CARBONIC DEHYDRATASE) (Mycobacterium tuberculosis, UniProt P96878).
T1 sequence (P96878 whole entry): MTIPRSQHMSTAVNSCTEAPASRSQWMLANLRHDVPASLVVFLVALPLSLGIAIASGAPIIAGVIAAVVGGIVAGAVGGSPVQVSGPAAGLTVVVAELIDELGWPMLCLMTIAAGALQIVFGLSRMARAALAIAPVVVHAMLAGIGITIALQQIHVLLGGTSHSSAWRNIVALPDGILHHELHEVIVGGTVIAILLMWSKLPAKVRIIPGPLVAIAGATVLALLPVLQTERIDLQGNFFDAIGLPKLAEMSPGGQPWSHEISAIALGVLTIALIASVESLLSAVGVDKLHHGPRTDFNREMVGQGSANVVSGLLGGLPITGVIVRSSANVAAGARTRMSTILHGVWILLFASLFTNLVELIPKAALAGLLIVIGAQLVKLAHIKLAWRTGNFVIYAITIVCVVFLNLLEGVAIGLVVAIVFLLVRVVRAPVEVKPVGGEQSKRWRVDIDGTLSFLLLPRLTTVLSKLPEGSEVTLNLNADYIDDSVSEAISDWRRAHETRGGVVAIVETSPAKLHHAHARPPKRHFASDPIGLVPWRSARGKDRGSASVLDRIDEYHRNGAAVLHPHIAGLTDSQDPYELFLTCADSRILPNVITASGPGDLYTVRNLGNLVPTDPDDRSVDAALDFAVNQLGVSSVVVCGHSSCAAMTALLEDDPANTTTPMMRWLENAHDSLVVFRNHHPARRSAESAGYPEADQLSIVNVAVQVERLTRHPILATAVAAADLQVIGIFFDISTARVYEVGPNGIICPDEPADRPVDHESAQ

On to `Nc1ccc(S(N)(=O)=O)cc1` [SULFANILAMIDE], for which the Ki came to 6.24 µM.

The Ki is a dissociation constant, usually derived from enzyme kinetics or from competition with a known ligand. A high value points to a looser hold on the target.
